Reference: patent US20230365537A1, “POLO LIKE KINASE 4 INHIBITORS” (ORIC Pharmaceuticals, Inc., priority 2021, published 2023)

Key:
[1] = target: human recombinant Aurora A (Homo sapiens (Human), UniProt O14965); assay: Aurora A Kinase Biochemical Assay (ADP-Glo); settings: ratio of Aurora A IC50 to PLK4 IC50 (selectivity)
Experimental: (§1) Activity of human recombinant Aurora A (ThermoFisher, cat #PR5935A) was measured by quantification of adenosine diphosphate (ADP) using the ADP-Glo Kinase Assay Kit (Promega, cat #V9102). […] 5 µL of 5.0 nM Aurora A in assay buffer (50 mM HEPES, pH 7.5, 0.01% Brij-35, 0.01% BSA, 10 mM MgCl2, 1 mM EGTA, 1 mM DTT) was added to the plates. Test compounds and Aurora A were incubated for 15 minutes at room temperature (RT). […] Reactions were stopped and the remaining ATP depleted by adding 10uL of ADP-Glo reagent (Promega, cat#V912B) and incubating for 40 minutes at RT. The simultaneous conversion of the remaining ADP to ATP and measurement of the newly synthesized ATP was achieved by addition of 20 µL Kinase Detection reagent (Promega, cat #V914B), incubation for 30 min at RT, and luminescence detection using the EnVision plate reader (PerkinElmer). […] The IC50 values reported in Table 2 were determined using four parameter non-linear regression curve fit.

human recombinant PLK4 = human recombinant PLK4 (Homo sapiens (Human), UniProt O00444); assay: PLK4 Biochemical Assay (ADP-Glo); settings: 0.5 nM PLK4, 8.0 µM ATP, 4.7 µM MBP, 6 hours at RT
Experimental: as §1, with “recombinant PLK4” for “recombinant Aurora A”, “cat #PV6396)” for “cat #PR5935A)”, “of 1.0” for “of 5.0”, “nM PLK4 protein” for “nM Aurora A”, “and PLK4” for “and Aurora A”, “adding 10 µL” for “adding 10uL”

[2] = target: human recombinant Aurora B (Homo sapiens (Human), UniProt Q96GD4); assay: Aurora B Kinase Biochemical Assay (ADP-Glo); settings: ratio of Aurora B IC50 to PLK4 IC50 (selectivity)
Experimental: as §1, with “Aurora B” for “Aurora A”, “cat #PR9210B)” for “cat #PR5935A)”, “of 20” for “of 5.0”

Sequence of human recombinant PLK4 (O00444 whole entry): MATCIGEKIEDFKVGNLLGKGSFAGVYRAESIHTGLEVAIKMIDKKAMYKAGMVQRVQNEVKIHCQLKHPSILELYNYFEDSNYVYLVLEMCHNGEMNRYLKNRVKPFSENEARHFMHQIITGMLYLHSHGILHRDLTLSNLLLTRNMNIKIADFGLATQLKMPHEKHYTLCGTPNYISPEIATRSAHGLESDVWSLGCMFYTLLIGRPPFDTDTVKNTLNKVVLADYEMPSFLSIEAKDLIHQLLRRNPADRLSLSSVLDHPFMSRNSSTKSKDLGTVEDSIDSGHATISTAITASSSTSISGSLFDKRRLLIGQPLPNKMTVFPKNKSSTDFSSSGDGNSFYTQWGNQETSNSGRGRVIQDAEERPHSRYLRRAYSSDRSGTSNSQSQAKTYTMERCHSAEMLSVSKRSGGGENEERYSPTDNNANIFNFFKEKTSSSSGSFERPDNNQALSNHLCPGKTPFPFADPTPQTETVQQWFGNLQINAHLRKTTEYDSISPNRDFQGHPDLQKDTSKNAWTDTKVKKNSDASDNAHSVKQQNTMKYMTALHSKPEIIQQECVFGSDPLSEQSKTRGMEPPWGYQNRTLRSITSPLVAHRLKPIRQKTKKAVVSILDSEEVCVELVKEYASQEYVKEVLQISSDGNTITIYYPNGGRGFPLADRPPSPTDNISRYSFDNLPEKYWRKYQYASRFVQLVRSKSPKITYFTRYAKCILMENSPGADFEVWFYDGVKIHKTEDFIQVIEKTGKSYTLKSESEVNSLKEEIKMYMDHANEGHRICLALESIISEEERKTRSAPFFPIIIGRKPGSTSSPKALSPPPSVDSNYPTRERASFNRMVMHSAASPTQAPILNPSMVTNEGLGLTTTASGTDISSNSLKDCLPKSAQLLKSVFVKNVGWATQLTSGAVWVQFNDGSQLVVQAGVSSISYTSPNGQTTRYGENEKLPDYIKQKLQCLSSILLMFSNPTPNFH
Sequence of human recombinant Aurora B (Q96GD4 whole entry): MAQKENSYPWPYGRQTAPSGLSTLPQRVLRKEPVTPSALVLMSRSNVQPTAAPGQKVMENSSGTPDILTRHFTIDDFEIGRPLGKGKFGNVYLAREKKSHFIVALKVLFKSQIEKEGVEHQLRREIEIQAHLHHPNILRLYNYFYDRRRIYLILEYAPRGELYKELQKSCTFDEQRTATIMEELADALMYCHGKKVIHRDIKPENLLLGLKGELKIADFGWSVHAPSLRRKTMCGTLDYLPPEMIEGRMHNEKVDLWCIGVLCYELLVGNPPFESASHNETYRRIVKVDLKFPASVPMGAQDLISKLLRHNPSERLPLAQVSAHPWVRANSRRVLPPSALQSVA
Sequence of human recombinant Aurora A (O14965 whole entry): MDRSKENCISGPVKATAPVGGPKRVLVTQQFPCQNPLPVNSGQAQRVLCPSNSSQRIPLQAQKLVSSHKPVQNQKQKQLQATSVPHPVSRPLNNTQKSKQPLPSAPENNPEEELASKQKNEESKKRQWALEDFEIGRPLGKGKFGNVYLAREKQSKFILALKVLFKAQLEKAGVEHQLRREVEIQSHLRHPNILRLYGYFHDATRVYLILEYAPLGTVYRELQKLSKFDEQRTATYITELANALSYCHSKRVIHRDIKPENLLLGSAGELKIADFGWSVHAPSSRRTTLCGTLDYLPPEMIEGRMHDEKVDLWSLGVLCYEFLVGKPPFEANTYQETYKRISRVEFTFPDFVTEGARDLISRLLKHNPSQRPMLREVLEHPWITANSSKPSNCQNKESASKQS

| SMILES | [Aurora A IC50 (nM)]/[PLK4 IC50 (nM)] [1] | IC50 (human recombinant PLK4) | [Aurora B IC50 (nM)]/[PLK4 IC50 (nM)] [2] |
| --- | --- | --- | --- |
| COc1ccc2c(c1)[C@]1(C[C@H]1c1ccc3c(Nc4ncncc4C)n[nH]c3c1)C(=O)N2 (racemic) [Example 2, racemic-5′-Methoxy-2-{3-[(5-methylpyrimidin-4-yl)amino]-1H-indazol-6-yl)spiro[cydopropane-1,3′-indol]-2′(1′H)-one] | 318.03 | 29.3 nM | 15.6544 |
| COc1ccc2c(c1)[C@]1(C[C@H]1c1ccc3c(Nc4ncncc4Cl)n[nH]c3c1)C(=O)N2 (racemic) [Example 3, racemic-2-{3-[(5-Chloropyrimidin-4-yl)amino]-1H-indazol-6-yl}-5′-methoxyspiro[cydopropane-13′-indol]-2′(1′H)-one] |  | 9.95 nM |  |
| COc1ccc2c(c1)[C@]1(C[C@H]1c1ccc3c(Nc4nc(C)nc5c4C(C)SC5)n[nH]c3c1)C(=O)N2 (single isomer, unassigned) [Example 211] | 531.9935 | 8.66 nM | 218.4107 |
| COc1ccc2c(c1)[C@]1(C[C@H]1c1ccc3c(Nc4ncncc4C4CC4)n[nH]c3c1)C(=O)N2 [Example 6, (1R,2S)-2-{3-[(5-cyclopropylpyrimidin-4-yl)amino]-1H-indazol-6-yl}-5′-methoxyspiro[cyclopropane-1,3′-indol]-2′(1′H)-one] |  | 18.2 nM |  |
| COc1ccc2c(c1)[C@@]1(C[C@@H]1c1ccc3c(Nc4ncncc4OC)n[nH]c3c1)C(=O)N2 [Example 8, (IS,2R)-5′-Methoxy-2-{3-[(5-methoxypyrimidin-4-yl)amino]-1H-indazol-6-yl}spiro[cyclopropane-1,3′-indol]-2′(1′H)-one] | 17.61 | 492 nM | 32.99 |
| COc1ccc2c(c1)[C@]1(C[C@H]1c1ccc3c(Nc4cc(OC)ncn4)n[nH]c3c1)C(=O)N2 [Example 14, (1R,2S)-5′-methoxy-2-{3-[(6-methoxypyrimidin-4-yl)amino]-1H-indazol-6-yl}spiro[cyclopropane-1,3′-indol]-2′(1′H)-one] | 74.16 | 36 nM | 3.866 |
| COc1ccc2c(c1)[C@]1(C[C@H]1c1ccc3c(Nc4ncnc5c4CCC5)n[nH]c3c1)C(=O)N2 [Example 15, (1R,2S)-2-{3-[(6,7-dihydro-5H-cyclopenta[d]pyrimidin-4-yl)amino]-1H-indazol-6-yl}-5′-methoxyspiro[cyclopropane-1,3′-indol]-2′(1′H)-one] |  | 45.7 nM |  |
| COc1ccc2c(c1)[C@]1(C[C@H]1c1ccc3c(Nc4cnccc4OC)n[nH]c3c1)C(=O)N2 [Example 18] |  | 22.9 nM |  |
| COc1ccc2c(c1)[C@]1(C[C@H]1c1ccc3c(Nc4ccncc4OC)n[nH]c3c1)C(=O)N2 [Example 19, (1R,2S)-5′-methoxy-2-{3-[(3-methoxypyridin-4-yl)amino]-1H-indazol-6-yl}spiro[cyclopropane-1,3′-indol]-2′(1′H)-one] |  | 24.8 nM |  |
| COc1ccc2c(c1)[C@]1(C[C@H]1c1ccc3c(Nc4c(C)nn(C)c4C)n[nH]c3c1)C(=O)N2 [Example 21, (1R,2S)-5′-methoxy-2-{3-[(1,3,5-trimethyl-1H-pyrazol-4-yl)amino]-1H-indazol-6-yl)spiro[cyclopropane-1,3′-indol]-2′(1′H)-one] |  | 41.7 nM |  |
| COc1ccc2c(c1)[C@]1(C[C@H]1c1ccc3c(Nc4ncncc4C(F)(F)F)n[nH]c3c1)C(=O)N2 [Example 22, (1R,2S)-5′-methoxy-2-(3-{[5-(trifluoromethyl)pyrimidin-4-yl]amino}-1H-indazol-6-yl)spiro[cyclopropane-1,3′-indol]-2′(1′H)-one] |  | 39.8 nM |  |

Compounds with a lower IC50 (human recombinant PLK4), results first:

| [Aurora A IC50 (nM)]/[PLK4 IC50 (nM)] [1] | IC50 (human recombinant PLK4) | [Aurora B IC50 (nM)]/[PLK4 IC50 (nM)] [2] | SMILES |
| --- | --- | --- | --- |
| 825.7199 | 6.04 nM | 492.8831 | COc1ccc2c(c1)[C@]1(C[C@H]1c1ccc3c(Nc4cc(C(C)O)cnc4OC)n[nH]c3c1)C(=O)N2 (mixture of isomers) [Example 271, (1R,2S)-2-(3-{[5-(1-hydroxyethyl)-2-methoxypyridin-3-yl]amino}-1H-indazol-6-yl)-5′-methoxyspiro[cyclopropane-1,3′-indol]-2′(1′H)-one] |
|  | 3.5 nM |  | COc1ccc2c(c1)[C@]1(C[C@H]1c1ccc3c(Nc4ncncc4OC)n[nH]c3c1)C(=O)N2 (racemic) [Example 1, racemic-5′-Methoxy-2-{3-[(5-methoxypyrimidin-4-yl)amino]-1H-indazol-6-yl}spiro[cyclopropane-1,3′-indol]-2′(1′H)-one] |
| 893.3126 | 3.21 nM | 19.96 | COc1ccc2c(c1)[C@]1(C[C@H]1c1ccc3c(Nc4nccc5c4OC[C@H]5CO)n[nH]c3c1)C(=O)N2 (single isomer, unassigned) [Example 34] |
| 906.0197 | 3.26 nM | 523.3415 | COc1ccc2c(c1)[C@]1(C[C@H]1c1ccc3c(Nc4nc(C5CCOC5)ncc4OC)n[nH]c3c1)C(=O)N2 (single isomer, unassigned) [Example 200] |
|  | 2.08 nM |  | COc1ccc2c(c1)[C@]1(C[C@H]1c1ccc3c(Nc4cccc5c4OCC5O)n[nH]c3c1)C(=O)N2 (stereo in doubt) [Example 27, 2-{3-[(3-hydroxy-2,3-dihydro-1-benzofuran-7-yl)amino]-1H-indazol-6-yl)-5′-methoxyspiro[cyclopropane-1,3′-indol]-2′(1′H)-one] |
|  | 0.375 nM |  | COc1ccc2c(c1)[C@]1(C[C@H]1c1ccc3c(Nc4cccc5c4OC[C@H]5O)n[nH]c3c1)C(=O)N2 (stereo in doubt) [Example 28] |
| 465.4867 | 3.96 nM | 11.45 | COc1ccc2c(c1)[C@]1(C[C@H]1c1ccc3c(Nc4ncncc4OC)n[nH]c3c1)C(=O)N2 [Example 4, (1R,2S)-5′-Methoxy-2-{3-[(5-methoxypyrimidin-4-yl)amino]-1H-indazol-6-yl}spiro[cyclopropane-1,3′-indol]-2′(1′H)-one] |
|  | 2.18 nM |  | CCOc1cncnc1Nc1n[nH]c2cc([C@@H]3C[C@@]34C(=O)Nc3ccc(OC)cc34)ccc12 [Example 5, (1R,2S)-2-[3-[(5-ethoxypyrimidin-4-yl)amino]-1H-indazol-6-yl]-5′-methoxy-spiro[cyclopropane-1,3′-indoline]-2′-one] |
| 693.5732 | 4.56 nM | 47.27 | COc1ccc2c(c1)[C@]1(C[C@H]1c1ccc3c(Nc4ncncc4Cl)n[nH]c3c1)C(=O)N2 [Example 7] |
| 667.5585 | 2.99 nM | 10.3 | COc1ccc2c(c1)[C@]1(C[C@H]1c1ccc3c(Nc4nccnc4OC)n[nH]c3c1)C(=O)N2 [Example 13, (1R,2S)-5′-methoxy-2-{3-[(3-methoxypyrazin-2-yl)amino)-1H-indazol-6-yl}spiro[cyclopropane-1,3′-indol]-2′(1′H)-one] |
|  | 2.25 nM |  | COc1ccc2c(c1)[C@]1(C[C@H]1c1ccc3c(Nc4cccnc4OC)n[nH]c3c1)C(=O)N2 [Example 24] |
|  | 3.85 nM |  | COc1ccc2c(c1)[C@]1(C[C@H]1c1ccc3c(Nc4cccc5ccoc45)n[nH]c3c1)C(=O)N2 [Example 26] |
|  | 5.97 nM |  | COc1ccc2c(c1)[C@]1(C[C@H]1c1ccc3c(Nc4cccc5c4OC[C@@H]5O)n[nH]c3c1)C(=O)N2 [Example 29, (1R,2S)-2-(3-{[(3R)-3-hydroxy-2,3-dihydro-1-benzofuran-7-yl]amino)-1H-indazol-6-yl)-5′-methoxyspiro[cyclopropane-1,3′-indol]-2′(1′H)-one] |
